Measured values published in patent US20160024057A1, “INDAZOLE RETINOIC ACID RECEPTOR-RELATED ORPHAN RECEPTOR MODULATORS AND USES THEREOF” (INNOV17 LLC, priority 2014, published 2016).

Key:
Assay type in all cases: cell-based
IL-17F = test: Human TH17 cytokine inhibition measured by ELISA: IL-17F; conditions: 72 h; human CD4+ T cells under TH17-polarizing conditions, 3 days, supernatant ELISA
Protocol: (§1) Human TH17 Cytokine Inhibition as Measured by ELISA
(§2) Peripheral blood mononuclear cells (PBMCs) were sourced from freshly prepared leukocyte enriched plasma (buffy coat) from healthy donors (New York Blood Center). PBMCs were isolated by density gradient centrifugation using Ficoll-Paque™ PLUS (GE Healthcare). Human CD4+ T cells were seeded into 96-well plates (5×10^4 cells/well) and activated with plate-bound anti-human (h)-CD3 antibody and soluble h-aCD28 (both at 1 ug/ml; eBioscience) and differentiated into TH17 cells with 20 ng/mL h-IL-6, 5 ng/mL h-TGF-β1, 10 ng/mL h-IL-23 (eBioscience) and 10 ng/mL IL-1β (Miltenyi Biotec) in serum-free TexMACS Medium (Miltenyi Biotec) supplemented with 1% Penicillin/Streptomycin (Lonza) for 3 days. CD4+ T cells propagated under TH17-polarizing conditions were cultured in the presence or absence of various concentrations of compounds with a final concentration of 0.1% DMSO. Supernatants were collected and stored at −20° C. until assayed for IL-17A, IL-17F and IL-21 levels by “Ready-Set-Go” ELISA kits (eBioscience) as per manufacturer's instructions. Endpoint absorbance was read at 450 nm using a microplate reader (Perkin Elmer).

IL-17A = test: Human TH17 cytokine inhibition measured by ELISA: IL-17A; conditions: human CD4+ T cells under TH17-polarizing conditions, 3 days, supernatant ELISA
Protocol: as §1, §2

IL-21 = test: Human TH17 cytokine inhibition measured by ELISA: IL-21; conditions: 72 h; human CD4+ T cells under TH17-polarizing conditions, 3 days, supernatant ELISA
Protocol: as §1, §2

IL-22 = test: Human TH17 cytokine inhibition measured by ELISA: IL-22; conditions: 72 h; human CD4+ T cells under TH17-polarizing conditions, 3 days, supernatant ELISA

SMILES	IC50 (IL-17F) [µM]	IC50 (IL-17A; 72 h) [µM]	IC50 (IL-21) [µM]	IC50 (IL-22) [µM]	IC50 (IL-17A) [µM]
O=S(=O)(Cc1ccccc1)N1CCC(Cn2ncc3cc(-c4cn[nH]c4)ccc32)CC1 [Example 32, 1-((1-(benzylsulfonyl)piperidin-4-yl)methyl)-5-(1H-pyrazol-4-yl)-1H-indazole]	< 10	< 10	< 10	< 10	–
N#Cc1cccc(S(=O)(=O)N2CCC(Cn3ncc4cc(-c5cn[nH]c5)ccc43)CC2)c1 [Example 43, 3-((4-((5-(1H-pyrazol-4-yl)-1H-indazol-1-yl)methyl)piperidin-1-yl)sulfonyl)benzonitrile]	< 10	< 10	–	–	–
O=S(=O)(c1ccc(C(F)F)cc1)N1CCC(Cn2ncc3cc(-c4cn[nH]c4)ccc32)CC1 [Example 44, 1-((1-((4-(difluoromethyl)phenyl)sulfonyl)piperidin-4-yl)methyl)-5-(1H-pyrazol-4-yl)-1H-indazole]	< 10	< 10	–	–	–
O=C(CCCc1ccccc1)N1CCC(Cn2ncc3cc(-c4cn[nH]c4)ccc32)CC1 [Example 8, 1-(4-((5-(1H-pyrazol-4-yl)-1H-indazol-1-yl)methyl)piperidin-1-yl)-4-phenylbutan-1-one]	< 10	< 10	< 10	–	–
C[C@H]1C[C@@H](Cn2ncc3cc(-c4cn[nH]c4)ccc32)CN1C(=O)CCc1ccccc1 (racemic) [Example 46, rac.-cis-1-(4-((5-(1H-pyrazol-4-yl)-1H-indazol-1-yl)methyl)-2-methylpyrrolidin-1-yl)-3-phenylpropan-1-one]	< 10	< 10	< 10	–	–
CC1(C)CC(Cn2ncc3cc(-c4cn[nH]c4)ccc32)CN1S(=O)(=O)c1ccccc1 (centres unmarked) [Example 35, 1-((5,5-dimethyl-1-(phenylsulfonyl)pyrrolidin-3-yl)methyl)-5-(1H-pyrazol-4-yl)-1H-indazole]	< 10	< 10	< 10	–	–
O=S(=O)(c1ccccc1)N1CCC(Cn2ncc3cc(-c4cn[nH]c4)ccc32)CC1 [Example 30, 1-((1-(phenylsulfonyl)piperidin-4-yl)methyl)-5-(1H-pyrazol-4-yl)-1H-indazole]	< 10	< 10	< 10	< 10	–
C[C@@H]1C[C@@H](Cn2ncc3cc(-c4cn[nH]c4)ccc32)CN1S(=O)(=O)c1ccccc1 (racemic) [Example 34, rac.-trans-1-((-5-methyl-1-(phenylsulfonyl)pyrrolidin-3-yl)methyl)-5-(1H-pyrazol-4-yl)-1H-indazole]	–	–	–	–	< 10
C[C@@H]1C[C@H](Cn2ncc3cc(-c4cn[nH]c4)ccc32)CN1S(=O)(=O)c1ccccc1 (racemic) [Example 33, rac.-cis-1-((-5-methyl-1-(phenylsulfonyl)pyrrolidin-3-yl)methyl)-5-(1H-pyrazol-4-yl)-1H-indazole]	< 10	< 10	< 10	–	–
CC1(C)CC(Cn2ncc3cc(-c4cn[nH]c4)ccc32)CN1C(=O)Cc1ccccc1 (centres unmarked) [Example 19, 1-(4-((5-(1H-pyrazol-4-yl)-1H-indazol-1-yl)methyl)-2,2-dimethylpyrrolidin-1-yl)-2-phenylethanone]	< 10	< 10	–	–	–
Cc1ccc(S(=O)(=O)N2CCC(Cn3ncc4cc(-c5cn[nH]c5)ccc43)CC2)cc1 [Example 42, 5-(1H-pyrazol-4-yl)-1-((1-tosylpiperidin-4-yl)methyl)-1H-indazole]	< 10	< 10	–	–	–
O=C(CC1CCCCC1)N1CCC(Cn2ncc3cc(-c4cn[nH]c4)ccc32)CC1 [Example 4, 1-(4-((5-(1H-pyrazol-4-yl)-1H-indazol-1-yl)methyl)piperidin-1-yl)-2-cyclohexylethanone]	< 10	< 10	< 10	–	–
O=S(=O)(c1ccc(F)cc1)N1CCC(Cn2ncc3cc(-c4cn[nH]c4)ccc32)CC1 [Example 37, 1-((1-((4-fluorophenyl)sulfonyl)piperidin-4-yl)methyl)-5-(1H-pyrazol-4-yl)-1H-indazole]	< 10	< 10	–	–	–
O=C(Cc1ccccc1)N1CCC(Cn2ncc3cc(-c4cn[nH]c4)ccc32)CC1 [Example 7, 1-(4-((5-(1H-pyrazol-4-yl)-1H-indazol-1-yl)methyl)piperidin-1-yl)-2-phenylethanone]	< 10	< 10	< 10	–	–
N#Cc1ccc(S(=O)(=O)N2CCC(Cn3ncc4cc(-c5cn[nH]c5)ccc43)CC2)cc1 [Example 38, 4-(4-((5-(1H-pyrazol-4-yl)-1H-indazol-1-yl)methyl)piperidin-1-ylsulfonyl)benzonitrile]	< 10	< 10	–	–	–
O=S(=O)(c1cccnc1)N1CCC(Cn2ncc3cc(-c4cn[nH]c4)ccc32)CC1 [Example 39, 5-(1H-pyrazol-4-yl)-1-((1-(pyridin-3-ylsulfonyl)piperidin-4-yl)methyl)-1H-indazole]	< 10	< 10	–	–	–
C[C@@H]1C[C@@H](Cn2ncc3cc(-c4cn[nH]c4)ccc32)CN1C(=O)CCc1ccccc1 (racemic) [Example 47, rac.-trans-1-(4-((5-(1H-pyrazol-4-yl)-1H-indazol-1-yl)methyl)-2-methylpyrrolidin-1-yl)-3-phenylpropan-1-one]	< 10	< 10	< 10	–	–
O=C(CCc1ccccc1)N1CCC(Cn2ncc3cc(-c4cn[nH]c4)ccc32)CC1 [Example 3, 1-(4-((5-(1H-pyrazol-4-yl)-1H-indazol-1-yl)methyl)piperidin-1-yl)-3-phenylpropan-1-one]	< 10	< 10	< 10	–	–
